pKi: −log10 of the molar value. Each block holds one compound with its values, some of them ahead of it.
Tests used:
[1] = target: T1, Alpha-1B adrenergic receptor (Rattus norvegicus, UniProt P15823); assay: Binding affinity towards Alpha1B rat adrenergic receptors, using [125I]HEAT as radioligand.
T1 sequence (P15823 whole entry): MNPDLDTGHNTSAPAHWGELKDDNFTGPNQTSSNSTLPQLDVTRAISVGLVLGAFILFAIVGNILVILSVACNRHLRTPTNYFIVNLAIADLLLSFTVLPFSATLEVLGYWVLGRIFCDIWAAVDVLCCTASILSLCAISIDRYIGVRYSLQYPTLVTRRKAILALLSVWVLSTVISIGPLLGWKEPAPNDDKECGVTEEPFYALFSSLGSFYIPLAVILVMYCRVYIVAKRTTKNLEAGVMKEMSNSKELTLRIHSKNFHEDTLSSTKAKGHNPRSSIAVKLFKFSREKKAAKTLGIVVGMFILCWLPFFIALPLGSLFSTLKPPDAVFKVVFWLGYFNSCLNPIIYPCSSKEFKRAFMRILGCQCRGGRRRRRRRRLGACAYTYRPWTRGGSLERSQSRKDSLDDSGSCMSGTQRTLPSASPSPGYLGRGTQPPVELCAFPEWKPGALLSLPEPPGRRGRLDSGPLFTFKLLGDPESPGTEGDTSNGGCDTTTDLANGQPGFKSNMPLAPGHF

[2] = system: Canis familiaris; assay: In vivo for selective antagonistic activity against intra-urethral pressure in dog, using phenylephrine as agonist; assay type: functional, Canis lupus familiaris, Urethra
[3] = Half-life in rat; assay type: ADME, organism-based; conditions: in vivo
[4] = target: T2, Alpha-2C adrenergic receptor (Homo sapiens, UniProt P18825); assay: Binding affinity towards human alpha-2C-adrenergic receptor, using [3H]rauwolscine as radioligand.
T2 sequence (P18825 whole entry): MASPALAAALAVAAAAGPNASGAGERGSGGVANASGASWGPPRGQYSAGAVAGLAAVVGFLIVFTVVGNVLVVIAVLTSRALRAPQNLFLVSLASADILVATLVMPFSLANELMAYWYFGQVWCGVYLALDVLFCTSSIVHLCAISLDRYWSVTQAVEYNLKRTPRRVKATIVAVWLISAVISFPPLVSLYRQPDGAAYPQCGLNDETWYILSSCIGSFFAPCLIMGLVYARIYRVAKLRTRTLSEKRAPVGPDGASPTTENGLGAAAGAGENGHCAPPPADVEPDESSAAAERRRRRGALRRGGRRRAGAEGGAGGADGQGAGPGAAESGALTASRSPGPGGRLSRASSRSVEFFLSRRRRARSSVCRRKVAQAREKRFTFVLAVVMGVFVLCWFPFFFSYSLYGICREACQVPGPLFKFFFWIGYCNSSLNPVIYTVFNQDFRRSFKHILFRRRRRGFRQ

[5] = species: Canis familiaris; assay: In vitro inhibition of phenylephrine induced contractions in dog prostate tissue; assay type: functional; conditions: Canis lupus familiaris, Prostate gland
[6] = target: Histamine H2 receptor (Homo sapiens, UniProt P25021); assay: Binding affinity towards human Histamine H2 receptor, using [3H]tiotidine as radioligand.
[7] = target: 5-hydroxytryptamine receptor 1D (Homo sapiens, UniProt P28221); assay: Binding affinity towards 5-HT1D receptor, using [3H]5-HT as radioligand.
[8] = Oral bioavailability in dog; assay type: ADME, organism-based, Canis lupus familiaris; conditions: in vivo
[9] = target: T3, 5-hydroxytryptamine receptor 1A (Mus musculus, UniProt Q64264); assay: Binding affinity towards 5-hydroxytryptamine 1A receptor receptor, using [3H]5-HT as radioligand.
T3 sequence (Q64264 whole entry): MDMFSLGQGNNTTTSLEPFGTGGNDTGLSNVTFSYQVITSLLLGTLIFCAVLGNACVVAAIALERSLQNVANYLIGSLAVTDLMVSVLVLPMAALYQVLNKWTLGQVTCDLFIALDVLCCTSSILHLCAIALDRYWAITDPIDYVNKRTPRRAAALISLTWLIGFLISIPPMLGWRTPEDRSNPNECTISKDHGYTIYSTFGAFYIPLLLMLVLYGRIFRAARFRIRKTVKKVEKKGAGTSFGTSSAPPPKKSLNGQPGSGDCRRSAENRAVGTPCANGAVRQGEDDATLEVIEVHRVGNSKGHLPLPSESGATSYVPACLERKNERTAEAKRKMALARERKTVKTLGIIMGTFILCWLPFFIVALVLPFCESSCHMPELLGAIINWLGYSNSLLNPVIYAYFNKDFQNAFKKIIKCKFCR

[10] = target: T4, Alpha-1D adrenergic receptor (Rattus norvegicus, UniProt P23944); assay: Binding affinity towards Alpha1D rat adrenergic receptors, using [125I]HEAT as radioligand.
T4 sequence (P23944 whole entry): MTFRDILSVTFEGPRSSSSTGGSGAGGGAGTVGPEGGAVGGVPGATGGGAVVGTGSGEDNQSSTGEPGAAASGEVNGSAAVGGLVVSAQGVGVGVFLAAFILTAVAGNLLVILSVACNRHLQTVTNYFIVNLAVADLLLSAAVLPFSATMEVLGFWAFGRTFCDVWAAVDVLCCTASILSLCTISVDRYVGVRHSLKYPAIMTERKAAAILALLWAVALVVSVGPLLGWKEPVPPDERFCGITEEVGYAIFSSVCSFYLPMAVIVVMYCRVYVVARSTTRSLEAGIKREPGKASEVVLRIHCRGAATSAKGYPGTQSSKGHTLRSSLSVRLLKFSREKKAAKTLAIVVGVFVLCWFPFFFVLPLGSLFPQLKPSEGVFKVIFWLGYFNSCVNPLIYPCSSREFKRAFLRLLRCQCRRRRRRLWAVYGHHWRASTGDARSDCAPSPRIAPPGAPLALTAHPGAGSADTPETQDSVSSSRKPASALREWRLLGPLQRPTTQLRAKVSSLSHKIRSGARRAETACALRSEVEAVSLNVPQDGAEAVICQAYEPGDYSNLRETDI

[11] = target: Voltage-gated L-type calcium channel (Rattus norvegicus, UniProt P22002+Q02485+P27732); assay: Inhibition of [3H]nitrendipine binding to rat L-type Ca-channel receptor; assay type: protein assay
[12] = Half-life in dog; assay type: ADME, organism-based, Canis lupus familiaris; conditions: in vivo
[13] = target: 5-hydroxytryptamine receptor 2A (Homo sapiens, UniProt P28223); assay: Binding affinity towards 5-hydroxytryptamine 2A receptor using [3H]5-HT as radioligand.
[14] = target: Histamine H1 receptor (Homo sapiens, UniProt P35367); assay: Binding affinity towards Histamine H1 receptor in human brain tissue preparation, using [3H]pyrilamine as radioligand.
[15] = system: Rattus norvegicus; assay: Compound was tested in situ for the inhibition of phenylephrine-induced contractions in anesthetized rat; assay type: functional
[16] = target: T5, Alpha-1D adrenergic receptor (Homo sapiens, UniProt P25100); assay: Binding affinity towards Alpha1D human adrenergic receptors, using [125I]HEAT as radioligand.
T5 sequence (P25100 whole entry): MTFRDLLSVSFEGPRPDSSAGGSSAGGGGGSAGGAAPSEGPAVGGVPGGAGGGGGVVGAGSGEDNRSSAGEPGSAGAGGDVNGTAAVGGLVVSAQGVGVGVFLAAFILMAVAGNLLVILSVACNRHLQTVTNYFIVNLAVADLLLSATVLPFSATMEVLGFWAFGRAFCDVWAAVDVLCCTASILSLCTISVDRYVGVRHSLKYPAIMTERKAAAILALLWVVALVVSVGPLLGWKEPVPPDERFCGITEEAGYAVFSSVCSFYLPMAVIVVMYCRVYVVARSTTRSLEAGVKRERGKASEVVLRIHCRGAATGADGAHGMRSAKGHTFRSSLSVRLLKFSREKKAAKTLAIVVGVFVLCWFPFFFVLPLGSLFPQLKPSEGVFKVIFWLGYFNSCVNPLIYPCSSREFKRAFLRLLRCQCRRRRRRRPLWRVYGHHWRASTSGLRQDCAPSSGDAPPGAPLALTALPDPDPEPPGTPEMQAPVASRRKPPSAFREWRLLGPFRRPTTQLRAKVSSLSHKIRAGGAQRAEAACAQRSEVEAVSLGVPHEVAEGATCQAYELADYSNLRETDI

[17] = target: 5-hydroxytryptamine receptor 1B (Homo sapiens, UniProt P28222); assay: Binding affinity towards 5-hydroxytryptamine 1B receptor using [3H]5-HT as radioligand.
[18] = species: Rattus norvegicus; assay: In vitro inhibition of A-61603 induced contractions in rat prostate tissue; assay type: functional; conditions: Prostate gland
[19] = target: T6, Alpha-1B adrenergic receptor (Homo sapiens, UniProt P35368); assay: Binding affinity towards Alpha1B human adrenergic receptors, using [125I]HEAT as radioligand.
T6 sequence (P35368 whole entry): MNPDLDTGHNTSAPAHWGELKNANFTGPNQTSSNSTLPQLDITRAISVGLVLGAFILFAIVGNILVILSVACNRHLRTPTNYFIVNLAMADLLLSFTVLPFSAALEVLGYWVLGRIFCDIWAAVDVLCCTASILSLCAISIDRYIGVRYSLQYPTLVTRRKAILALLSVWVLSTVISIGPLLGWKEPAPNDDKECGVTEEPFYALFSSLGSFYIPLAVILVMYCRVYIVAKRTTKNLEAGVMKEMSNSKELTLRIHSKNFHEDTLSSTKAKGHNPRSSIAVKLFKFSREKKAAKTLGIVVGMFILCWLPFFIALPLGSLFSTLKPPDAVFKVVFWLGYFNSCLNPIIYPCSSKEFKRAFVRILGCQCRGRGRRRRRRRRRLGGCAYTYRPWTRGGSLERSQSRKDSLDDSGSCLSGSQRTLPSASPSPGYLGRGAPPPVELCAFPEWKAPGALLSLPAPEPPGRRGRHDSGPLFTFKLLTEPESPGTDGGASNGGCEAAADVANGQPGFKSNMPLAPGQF

[20] = system: Canis familiaris; assay: In vivo for selective antagonistic activity against diastolic blood pressure in dog, using phenylephrine as agonist; assay type: functional, Canis lupus familiaris, Artery
[21] = species: Homo sapiens; assay: In vitro inhibition of A-61603 induced contractions in human prostate tissue; assay type: functional; conditions: Prostate gland
[22] = target: T7, Alpha-2B adrenergic receptor (Homo sapiens, UniProt P18089); assay: Binding affinity towards human alpha-2B-adrenergic receptor, using [3H]rauwolscine as radioligand.
T7 sequence (P18089 whole entry): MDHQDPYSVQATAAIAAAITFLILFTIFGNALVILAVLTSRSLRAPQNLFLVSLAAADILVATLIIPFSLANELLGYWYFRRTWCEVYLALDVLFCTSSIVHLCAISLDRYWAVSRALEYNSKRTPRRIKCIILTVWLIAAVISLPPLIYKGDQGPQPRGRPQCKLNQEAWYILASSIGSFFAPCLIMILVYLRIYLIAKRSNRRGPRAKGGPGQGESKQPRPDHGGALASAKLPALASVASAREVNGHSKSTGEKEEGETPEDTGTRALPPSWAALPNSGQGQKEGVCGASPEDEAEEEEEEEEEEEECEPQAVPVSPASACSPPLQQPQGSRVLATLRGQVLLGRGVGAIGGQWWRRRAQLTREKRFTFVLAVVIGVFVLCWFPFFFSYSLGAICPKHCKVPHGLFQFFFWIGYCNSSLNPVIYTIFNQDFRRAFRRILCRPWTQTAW

[23] = target: T8, Alpha-2A adrenergic receptor (Homo sapiens, UniProt P08913); assay: Binding affinity towards human alpha-2A-adrenergic receptor, using [3H]rauwolscine as radioligand.
T8 sequence (P08913 whole entry): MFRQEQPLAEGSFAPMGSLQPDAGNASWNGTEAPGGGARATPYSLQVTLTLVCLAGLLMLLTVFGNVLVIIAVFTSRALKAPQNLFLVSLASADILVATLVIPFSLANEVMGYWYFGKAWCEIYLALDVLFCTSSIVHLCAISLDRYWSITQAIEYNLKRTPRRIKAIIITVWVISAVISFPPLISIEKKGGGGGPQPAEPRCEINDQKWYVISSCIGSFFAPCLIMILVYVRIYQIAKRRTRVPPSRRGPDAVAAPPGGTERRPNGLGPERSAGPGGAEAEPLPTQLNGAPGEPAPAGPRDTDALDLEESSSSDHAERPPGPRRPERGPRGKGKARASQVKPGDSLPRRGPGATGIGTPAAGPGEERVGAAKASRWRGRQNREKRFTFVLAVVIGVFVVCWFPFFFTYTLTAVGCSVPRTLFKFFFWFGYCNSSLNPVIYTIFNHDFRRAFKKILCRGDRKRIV

[24] = species: Rattus norvegicus; assay: In vitro inhibition of norepinephrine induced contractions in isolated rat aorta; assay type: functional
[25] = Oral bioavailability in rat; assay type: ADME, organism-based; conditions: in vivo

Histamine H1 receptor, sequence (P35367 whole entry): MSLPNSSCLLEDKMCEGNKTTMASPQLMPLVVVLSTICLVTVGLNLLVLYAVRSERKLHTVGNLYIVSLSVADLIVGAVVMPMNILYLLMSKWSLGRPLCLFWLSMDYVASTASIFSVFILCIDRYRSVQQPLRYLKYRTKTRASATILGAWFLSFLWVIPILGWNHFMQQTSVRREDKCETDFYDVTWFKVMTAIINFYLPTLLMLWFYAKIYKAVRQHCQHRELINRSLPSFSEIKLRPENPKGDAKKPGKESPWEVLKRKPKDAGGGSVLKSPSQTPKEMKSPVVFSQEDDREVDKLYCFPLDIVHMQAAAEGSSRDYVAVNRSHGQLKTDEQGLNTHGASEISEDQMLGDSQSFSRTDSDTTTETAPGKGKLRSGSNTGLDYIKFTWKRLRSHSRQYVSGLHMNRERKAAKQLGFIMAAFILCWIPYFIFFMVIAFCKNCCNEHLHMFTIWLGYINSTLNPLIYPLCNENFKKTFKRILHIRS
Histamine H2 receptor, sequence (P25021 whole entry): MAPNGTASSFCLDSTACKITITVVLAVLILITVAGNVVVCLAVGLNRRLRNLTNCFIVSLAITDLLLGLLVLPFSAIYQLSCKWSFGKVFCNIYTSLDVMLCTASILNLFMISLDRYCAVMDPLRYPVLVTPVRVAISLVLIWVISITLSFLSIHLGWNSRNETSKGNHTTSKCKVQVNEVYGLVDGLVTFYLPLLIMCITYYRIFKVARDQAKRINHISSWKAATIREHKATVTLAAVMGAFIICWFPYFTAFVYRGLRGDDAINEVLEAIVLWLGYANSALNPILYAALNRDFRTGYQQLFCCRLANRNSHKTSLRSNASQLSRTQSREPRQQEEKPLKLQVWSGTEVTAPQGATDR
5-hydroxytryptamine receptor 1B, sequence (P28222 whole entry): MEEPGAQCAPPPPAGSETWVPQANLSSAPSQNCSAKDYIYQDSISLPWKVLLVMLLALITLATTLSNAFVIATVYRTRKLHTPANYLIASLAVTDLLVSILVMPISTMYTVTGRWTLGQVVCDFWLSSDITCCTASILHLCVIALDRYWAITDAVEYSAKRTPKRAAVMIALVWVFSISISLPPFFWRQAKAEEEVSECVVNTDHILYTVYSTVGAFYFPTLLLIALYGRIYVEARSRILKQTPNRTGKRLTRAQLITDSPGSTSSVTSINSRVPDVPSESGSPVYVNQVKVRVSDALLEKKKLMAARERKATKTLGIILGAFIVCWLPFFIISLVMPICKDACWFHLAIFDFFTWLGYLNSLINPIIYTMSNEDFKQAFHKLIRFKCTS
5-hydroxytryptamine receptor 2A, sequence (P28223 whole entry): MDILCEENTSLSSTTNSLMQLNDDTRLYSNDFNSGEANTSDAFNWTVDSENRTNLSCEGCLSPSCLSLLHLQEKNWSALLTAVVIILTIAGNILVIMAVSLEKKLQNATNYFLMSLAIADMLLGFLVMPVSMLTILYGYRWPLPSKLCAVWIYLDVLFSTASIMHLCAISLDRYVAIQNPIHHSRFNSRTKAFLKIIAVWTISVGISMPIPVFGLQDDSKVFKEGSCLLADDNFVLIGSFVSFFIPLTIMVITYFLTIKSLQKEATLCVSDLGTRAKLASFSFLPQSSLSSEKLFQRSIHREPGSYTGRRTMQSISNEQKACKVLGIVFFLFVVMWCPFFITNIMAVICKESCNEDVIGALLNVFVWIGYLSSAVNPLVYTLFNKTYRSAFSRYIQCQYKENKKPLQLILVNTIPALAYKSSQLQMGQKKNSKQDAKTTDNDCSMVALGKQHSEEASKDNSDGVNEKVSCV
5-hydroxytryptamine receptor 1D, sequence (P28221 whole entry): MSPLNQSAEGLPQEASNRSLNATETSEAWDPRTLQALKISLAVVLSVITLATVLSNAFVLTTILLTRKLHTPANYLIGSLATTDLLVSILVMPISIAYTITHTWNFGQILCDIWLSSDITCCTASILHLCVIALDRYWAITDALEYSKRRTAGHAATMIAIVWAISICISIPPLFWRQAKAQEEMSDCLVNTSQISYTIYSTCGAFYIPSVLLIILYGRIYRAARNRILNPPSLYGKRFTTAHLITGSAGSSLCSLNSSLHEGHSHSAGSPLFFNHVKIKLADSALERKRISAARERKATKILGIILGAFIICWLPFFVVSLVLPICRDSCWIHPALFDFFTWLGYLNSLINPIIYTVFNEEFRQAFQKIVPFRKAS

pKi [1]: 7.10
half-life [3]: 6 h
pKi [4]: < 7.35
pKi [6]: < 6.00
pKi [7]: < 6.30
bioavailability [8]: 74%
pKi [9]: < 6.30
pKi [10]: 7.21
Ki [11]: > 1000 nM
half-life [12]: > 12 h
pKi [13]: < 6.30
pKi [14]: 7.27
pKi [16]: 6.91
pKi [17]: < 6.30
pKi [19]: 6.92
pKi [22]: < 7.35
pKi [23]: < 7.35
bioavailability [25]: 25%
SMILES: C[C@@H]1OC(=O)N(C(=O)NCCCN2CCC(c3ccc(F)cc3)CC2)[C@H]1c1ccc(F)c(F)c1
Kb [2]: 3 µg/kg
Kb [5]: 0.33 nM
AD50 [15]: 0.012 mg/kg
Kb [18]: 0.26 nM
DBP15 [20]: >300 µg/kg
Kb [21]: 0.1 nM
Kb [24]: > 1000 nM

SMILES: COc1cc2nc(N3CCN(C(=O)C4CCCO4)CC3)nc(N)c2cc1OC (configuration not stated) [TERAZOSIN]
Kb [2]: 16 µg/kg
Kb [5]: 130 nM
AD50 [15]: 0.052 mg/kg
Kb [18]: 25 nM
DBP15 [20]: 72 µg/kg
Kb [21]: 25 nM
Kb [24]: 19 nM
